Results: US4795639A, “Potentiating formulations” (priority 1971, dated 1989)
Several values for one entry are separate records, joined by “and”; a condition that tells them apart may be missing. Equal entries are not always repeated.

Columns and labels:
Pasteurella multocida = Pasteurella multocida infection in chicks; type: in vivo
E. tenella = test: coccidiosis screening test in chicks, E. tenella; type: in vivo, Eimeria tenella; details: Expt. 4; 100,000 oocysts; p.p.m SQX/DV/DMHP: b374 10/-/-; b375 -/20/-; b376 -/-/10; b377 10/-/10; b378 -/20/10; b379 10/20/-; b381 10/20/10; b382 20/-/-; b383 -/40/-; b384 -/-/20; b385 20/-/20; b386 -/40/20; b387 20/40/-; b389 20/40/20
Procedure: "Screening tests" were performed to establish the effectiveness of the compounds of formula (I) both alone and in combination with a competitor and or an inhibitor and to determine the most useful levels of relative concentrations of each component in combatting or suppressing coccidiosis.
Groups of Ranger cockerels, housed in small, heated cages with wire floors situated in enironmentally controlled isolation rooms, were infected orally with sporulated oocysts of the Eimeria spp such as E. tenella or E. acervulina. The appropriate test compound(s), (DMHP, sulphaquinoxaline (SQX) or diaveridine (DV) or any combination of these) were incorporated in a small quantity of specially formulated laboratory ration deficient in Vitamin K (`L.D.4 mash`), as a 1/10 pre-mix, which was then mixed into the diet on a horizontal roller drum mixed and administered to groups of chicks one day prior to infection, leaving some groups as untreated controls. Administration was continued for several days, for example about 8 or 9 days.
The amount of damage, marked by lesions in the caecal walls was investigated in those chicks that died during the course of the experiment, and in those sacrificed on the final day of administration, and compared with the untreated controls as a basis for the determination of therapeutic activity. In addition the mortality rate and the percentage weight gains in the various groups were assessed. A marked or definite effect of the administered drug could be recognised even when the mortality rates were similar or identical, since the increase in the weight gains and the reduction of the extension of lesions indicated by the lesion score, is characteristic of an improvement. […]
4:1 sulphaquinoxaline/diaveridine mixtures at levels of 80/20, 60/15, 40/10 and 20/5 p.p.m. were administered alone and in combination with a wide range of low concentrations of DMHP to the birds.
The results of these screening tests are set forth in Table 4 showing the concentration of the various component compounds in parts per million of the bird's diet, the mortality from coccidiosis, the percentage weight gain, the lesion score the oocyst output, and the activity. The caecal lesion index is calculated using a score system where: […]
In addition a score of 4 is assigned to any bird that dies of coccidiosis during the experiment. [formula] In the activity column, +++, ++, +, ± and - relate respectively to very high, high, slight, doubtful and nil activity of the test drug against the Eimeria infection.

Pseudomonas aeruginosa = test: zone inhibition, pteridine in agar, drugs in well; type: cell-based; details: for complete zone inhibition, SMX (300) / zone including partial inhibition, SMX (300): SMX 300 μg/ml; for zone including partial inhibition, TMP (30): TMP 30 μg/ml; for complete zone inhibition, TMP + SMX (5) (100) / zone including partial inhibition, TMP + SMX (5) (100): TMP 5 + SMX 100 μg/ml
Procedure: (§1) The pteridine was included in a soya peptone medium of low thymidine content (Wellcotest Sensitivity Test Agar) contained in a Petri-dish and the other component(s) added to the well resulting from the removal of a small plug from the medium. The surface of the medium was inoculated with the test organism and then incubated.

Staphylococcus aureus = test: zone inhibition, pteridine in agar, drugs in well; type: cell-based; details: for complete zone inhibition, SMX (300) / zone including partial inhibition, SMX (300): SMX 300 μg/ml; for complete zone inhibition, TMP + SMX (5) (100) / zone including partial inhibition, TMP + SMX (5) (100): TMP 5 + SMX 100 μg/ml
Procedure: as §1

[1] = biological target: T1, hydroxymethyldihydropteridine pyrophosphokinase (HMPPS) (Escherichia coli, UniProt P26281); test: HMPPS assay: transfer of terminal phosphate of ATP-γ-P^32 to Pt; type: biochemical, E. coli; details: read-out: IC50
T1 construct: obtained from an extract of E. coli; endogenous in cells; host or cells: E. coli extract; HMPPS separated from synthetase on Sephadex G-100 (method of Richey and Brown 1969)
T1 sequence (P26281 whole entry): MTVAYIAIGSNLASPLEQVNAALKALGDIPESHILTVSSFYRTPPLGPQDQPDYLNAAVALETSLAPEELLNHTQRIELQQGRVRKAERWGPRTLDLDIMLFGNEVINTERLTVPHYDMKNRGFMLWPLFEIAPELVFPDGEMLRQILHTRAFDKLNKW
Text: (a) An assay for HMPPS was developed in which the transfer of the terminal phosphate of ATP-γ-P^32 to Pt could be monitored and correlated with the amount of inhibition of HMPPS by the compound under test.
The compound under test was incorporated into various formulations comprising metabolites and enzymes contained in test tubes, as indicated in TABLE 1.
II--a source of HMMP S, obtained from an extract of E. coli and separated from `synthetase` on Sephadex G-100, according to the method of Richey and Brown in J. Biol. Chem. 244, 1582-1592 (1969)
Control tubes 10 to 12 include a source of both HMPPS and synthetase, unlabelled ATP, 0.1M MgCl2.6H2 O and labelled pAB.
Tubes 1 to 9 containing the amounts of components shown in the Table, were filled up to 200 μl with distilled water, incubated for 60 minutes at 37° C. and then chilled on ice. Dextrose (20 μl containing 72.1 mg/ml) and hexokinase (5 μl containing 2000 units/ml) were added to the solution, which was then allowed to stand at room temperature for 15 minutes. `Darco-G-60` (Registered Trade Mark) (10 mg) was added to each tube and the contents mixed periodically for 10 minutes. The charcoal was removed through a "Millipore AP 250 2200" (Registered Trade Mark) filter and the filter was washed with three 10 ml portions of cold water. The Charcoal and the filter were then radioactively counted.
The radioactive count from the contents of tubes 2 and 3 was taken as the maximum count, since these tubes contained no test compound and thus gave 0% enzyme inhibition. The percentage inhibition produced by the contents of the remaining tubes could then be calculated by relating their radioactive count to the maximum, as determined above.

coccidiosis = test: potentiating effect against coccidiosis; type: in vivo; details: replacement of DMHP
[2] = pteridine 3 μg/ml, TMP 30 μg/ml
[3] = pteridine 10 μg/ml, TMP 30 μg/ml

Question: With `COc1ccc(Cc2cnc(N)nc2N)cc1OC` [DV, 2,4-diamino-5-(3',4'-dimethoxybenzyl) pyrimidine] as the molecule, how does the “activity alone against Pasteurella multocida” value (Pasteurella multocida; Example 3 Experiment 1) read?
Answer: Its value is “low activity alone”.

Question: And the “Average Weight of surviving chicks” value (Pasteurella multocida; Table 5, doses as in E44)?
Answer: Its value is 140.0 gm.

Question: And the “Cumulative Mortality on day 2” value (Pasteurella multocida; Table 5, doses as in E44)?
Answer: The value was 2 and 1.

Question: What about the “Cumulative Mortality on day 5” value (Pasteurella multocida; Table 5, doses as in E44) of the same molecule?
Answer: Its value is 6 and 5.

Question: What about the “Cumulative Mortality on day 6” value (Pasteurella multocida; Table 5, doses as in E44) of the same molecule?
Answer: The value was 6 and 8.

Question: What about the “Cumulative Mortality on day 7” value (Pasteurella multocida; Table 5, doses as in E44) of the same molecule?
Answer: Its value is 7 and 9.

Question: What about the “Cumulative Mortality on day 8” value (Pasteurella multocida; Table 5, doses as in E44) of the same molecule?
Answer: Its value is 7 and 10.

Question: And the “Cumulative Mortality on day 9” value (Pasteurella multocida; Table 5, doses as in E44)?
Answer: The value was 7.

Question: And the “Cumulative Mortality on day 10” value (Pasteurella multocida; Table 5, doses as in E44)?
Answer: The value was 7.

Question: What about the “Mortality from Coccidiosis” value (E. tenella) of the same molecule?
Answer: Its value is 8/10 and 8/9.

Question: Which results are given for `CCC1(CC)Nc2nc(N)nc(O)c2N=C1CO` [R = CH2 OH R = R^2 = Et, 2-amino-4-hydroxy-6-hydroxymethyl-7,7-diethyl-7,8-dihydropteridine]?
Answer: complete zone inhibition, SMX (300) (Pseudomonas aeruginosa; pteridine 3 μg/ml): 9.0 centimeters; zone including partial inhibition, SMX (300) (Pseudomonas aeruginosa; pteridine 3 μg/ml): 13.0 centimeters; zone including partial inhibition, TMP (30) (Pseudomonas aeruginosa; pteridine 3 μg/ml): 3.0 centimeters; complete zone inhibition, TMP + SMX (5) (100) (Pseudomonas aeruginosa; pteridine 3 μg/ml): 7.0 centimeters; zone including partial inhibition, TMP + SMX (5) (100) (Pseudomonas aeruginosa; pteridine 3 μg/ml): 10.0 centimeters; complete zone inhibition, SMX (300) (Pseudomonas aeruginosa; pteridine 10 μg/ml): 13 centimeters; zone including partial inhibition, SMX (300) (Pseudomonas aeruginosa; pteridine 10 μg/ml): 16.0 centimeters; zone including partial inhibition, TMP (30) (Pseudomonas aeruginosa; pteridine 10 μg/ml): 5.0 centimeters; complete zone inhibition, TMP + SMX (5) (100) (Pseudomonas aeruginosa; pteridine 10 μg/ml): 8.0 centimeters; zone including partial inhibition, TMP + SMX (5) (100) (Pseudomonas aeruginosa; pteridine 10 μg/ml): 12.0 centimeters; synergism with TMP and SMX against Staphylococcus aureus (Staphylococcus aureus; compared with DMHP): slightly more active than DMHP; complete zone inhibition, SMX (300) (Staphylococcus aureus; pteridine 3 μg/ml): 6.5 centimeters; zone including partial inhibition, SMX (300) (Staphylococcus aureus; pteridine 3 μg/ml): 12.5 centimeters; complete zone inhibition, TMP (30) (Staphylococcus aureus; [2]): 8.5 centimeters; zone including partial inhibition, TMP (30) (Staphylococcus aureus; [2]): 10.5 centimeters; complete zone inhibition, TMP + SMX (5) (100) (Staphylococcus aureus; pteridine 3 μg/ml): 10.5 centimeters; zone including partial inhibition, TMP + SMX (5) (100) (Staphylococcus aureus; pteridine 3 μg/ml): 12.5 centimeters; complete zone inhibition, SMX (300) (Staphylococcus aureus; pteridine 10 μg/ml): 10.5 centimeters; zone including partial inhibition, SMX (300) (Staphylococcus aureus; pteridine 10 μg/ml): 14.0 centimeters; complete zone inhibition, TMP (30) (Staphylococcus aureus; [3]): 10.5 centimeters; zone including partial inhibition, TMP (30) (Staphylococcus aureus; [3]): 13.0 centimeters; complete zone inhibition, TMP + SMX (5) (100) (Staphylococcus aureus; pteridine 10 μg/ml): 11.0 centimeters; zone including partial inhibition, TMP + SMX (5) (100) (Staphylococcus aureus; pteridine 10 μg/ml): 14.5 centimeters; complete zone inhibition, TMP (30) (Staphylococcus aureus; pteridine 30 μg/ml in medium, TMP 30 μg/ml in well, about 6× magnification): 12.5 centimeters; complete zone inhibition, SMX (300) (Staphylococcus aureus; pteridine 30 μg/ml): 12.5 centimeters; zone including partial inhibition, SMX (300) (Staphylococcus aureus; pteridine 30 μg/ml): 17.0 centimeters; zone including partial inhibition, TMP (30) (Staphylococcus aureus; pteridine 30 μg/ml, TMP 30 μg/ml): 17.0 centimeters; complete zone inhibition, TMP + SMX (5) (100) (Staphylococcus aureus; pteridine 30 μg/ml): 12.5 centimeters; zone including partial inhibition, TMP + SMX (5) (100) (Staphylococcus aureus; pteridine 30 μg/ml): 17.0 centimeters

Question: For `CC1=Nc2c(O)nc(N)nc2NC1(C)C` [R=Me, R^1=Me, R^2=Me, 2-Amino-4-hydroxy-6-methyl-7,7-dimethyl-7,8-dihydropteridine], which IC50 [1] is on record?
Answer: The IC50 was 75 µM.

Question: And the “potentiating effect against coccidiosis” value (coccidiosis)?
Answer: Its value is “noticeable, athough less marked potentiating effect”.
